Measurements: publication PMC7297817, “Pharmacological Characterization of a Betaine/GABA Transporter 1 (BGT1) Inhibitor Displaying an Unusual Biphasic Inhibition Profile and Anti-seizure Effects” (Neurochemical Research, 2020)
pIC50: −log10 of the molar value. “Also recorded” adds a separate entry of the source. Like-named read-outs stand apart in the source and are kept apart here.

Key:
[1] = target: T1, mGAT1 (Mus musculus, UniProt P31648); assay: [3H]GABA uptake at mGAT1 stably expressed in HEK-293 cells; type: cell-based
T1 construct: expressed in transfected cells
Description: (§1) The HEK-293 and Flp-In CHO cell lines stably expressing mouse (m) and human (h) GATs, respectively, have been described previously and were cultured accordingly. The tsA201 cell line was used for transient expression while the MDCK II cell line express BGT1 endogenously. Both cell lines were cultured as described. tsA201 cells were transfected with DNA constructs (8 μg per 10 cm dish if not otherwise mentioned) using 40 μL PolyFect transfection reagent according to the manufacturer’s protocol (Qiagen, Venlo, Netherlands). The DNA constructs encoding hBGT1, hGAT1-3 [36], the mutated constructs hBGT1 Q299 and hGAT3 L314Q described previously, and hBGT Y453A were synthesized and sequence validated by Genscript (NJ, USA).
(§2) The [^3H]GABA competition uptake assay was performed as previously described. A minor change, however, was introduced for uptake in MDCK II cells, in which 100 nM [^3H]GABA was used for a 15 min incubation period at 37 °C instead of 30 nM [^3H]GABA and 3 min incubation. Studies related to the inhibition curves with GABA and BPDBA at hBGT1 were obtained both with and without the presence of 10 μM ATP during the [^3H]GABA uptake assay.
The [^3H]GABA uptake data was normalized to the percentage of total uptake in the individual experiments in the presence of the lowest compound concentration or no compound present. Data presented is the pooled data of at least three independent experiments with three technical replicates. Concentration–response curves (CRCs) were fitted with GraphPad Prism (version 8.2.1, Yosemite, GraphPad Software, San Diego, CA, USA) by non-linear regression to the sigmoidal concentration response model: Y=Bottom+(Top-Bottom)/1+10^LogIC50-X∗nH where Top is the Top plateau, Bottom is the Bottom plateau, X is the logarithm of the concentration of the compound, LogIC50 is the concentration giving a response halfway between Top and Bottom,and nH is the Hill slope.
The best fit for CRCs obtained with the [^3H]GABA uptake assay was identified by the extra-sum-of-squares F test (for convenience referred to as F test).

[2] = target: T2, D4 (Homo sapiens, UniProt P21917); assay: NIMH PDSP radioligand binding, D4; details: radioligand [3H]N-methylspiperone, n=4
T2 construct: purchased NIMH Psychoactive Drug Screening Program (PDSP)

[3] = target: T3, MOR (Homo sapiens, UniProt P35372); assay: NIMH PDSP radioligand binding, MOR; details: radioligand [3H]DAMGO, n=4
T3 construct: purchased NIMH Psychoactive Drug Screening Program (PDSP)

[4] = tested on: CF-1 mice; assay: Maximal electroshock (MES) test; type: in vivo, mouse; details: for #Protected/#Tested: 15 min
Excerpt: Male audiogenic-susceptible (AGS) Frings mice were obtained from an in-house breeding facility at the University of Utah (Salt Lake City, UT, USA). Male CF-1 mice for the maximal electroshock (MES) test and the subcutaneous pentylenetetrazol (s.c.PTZ) seizure threshold test were purchased from Charles River (Kingston, WA, USA). All mice were housed in a temperature, humidity, and light (on at 6:00 AM) controlled facility at the University of Utah with access to ad libitum food and water except during testing. All procedures were carried out at the University of Utah in concordance with the National Institutes of Health Guidelines for the Care and Use of Laboratory Animals and under approval from the University of Utah’s Institutional Animal Care and Use Committee. The mice were euthanized in accordance with Public Health Service policies on the humane care of laboratory animals. […] This is a model of generalised tonic–clonic seizures, and was conducted as described previously. In brief, a drop of anaesthetic/electrolyte solution (0.5% tetracaine hydrochloride in 0.9% saline) was applied to the cornea of each animal prior to placement of the silver-coated corneal electrodes. An alternating current of 50 mA (60 Hz) was delivered for 0.2 s to the cornea of the mouse using a Woodbury–Davenport stimulator. The supramaximal current applied to the cornea was sufficient to induce maximal tonic extension seizures in all non-treated mice. […] Those mice not displaying full hind limb tonic extension seizures were considered protected. Probit analysis was used to analyse the efficacy and tolerability results obtained from the dose–response studies and to calculate the median effective (ED50) dose, the median toxic dose (TD50), and the 95% confidence interval.

[5] = target: T4, M5 (Homo sapiens, UniProt P08912); assay: NIMH PDSP radioligand binding, M5
T4 construct: purchased NIMH Psychoactive Drug Screening Program (PDSP)

[6] = target: T5, hGAT3 (Homo sapiens, UniProt P48066); assay: [3H]GABA uptake at hGAT3 transiently expressed in tsA201 cells; type: cell-based; details: 30 nM [3H]GABA, 3 min, F test P < 0.05
T5 construct: expressed in transfected cells
T5 sequence (P48066 1-632): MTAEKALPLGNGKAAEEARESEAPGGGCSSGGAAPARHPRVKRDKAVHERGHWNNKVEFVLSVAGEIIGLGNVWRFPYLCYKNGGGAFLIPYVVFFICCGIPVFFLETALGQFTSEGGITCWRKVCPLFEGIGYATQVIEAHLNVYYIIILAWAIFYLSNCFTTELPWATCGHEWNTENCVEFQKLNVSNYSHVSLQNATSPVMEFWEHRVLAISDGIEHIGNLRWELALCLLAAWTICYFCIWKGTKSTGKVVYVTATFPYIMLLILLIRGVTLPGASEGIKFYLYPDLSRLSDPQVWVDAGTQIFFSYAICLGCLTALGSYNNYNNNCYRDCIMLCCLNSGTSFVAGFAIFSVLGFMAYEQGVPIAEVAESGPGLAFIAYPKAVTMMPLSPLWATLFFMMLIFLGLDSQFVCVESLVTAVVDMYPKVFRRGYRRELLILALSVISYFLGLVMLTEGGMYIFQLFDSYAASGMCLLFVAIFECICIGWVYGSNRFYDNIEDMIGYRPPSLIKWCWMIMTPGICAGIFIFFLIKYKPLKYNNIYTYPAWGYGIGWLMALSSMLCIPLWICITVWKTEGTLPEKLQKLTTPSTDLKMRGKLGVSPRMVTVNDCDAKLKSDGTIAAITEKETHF
Description: as §1, §2
(§3) The [^3H]GABA uptake data was normalized to the percentage of total uptake in the individual experiments in the presence of the lowest compound concentration or no compound present. […]

[7] = tested on: tsA201 cells transiently expressing hBGT1; assay: Fluo-4 Ca2+-assay in tsA201 cells transiently expressing hBGT1; type: cell-based, human; details: within the 3 min timeframe; blocked by BAPTA/AM
Description: Emission was recorded for 20 s. before adding the compounds (at 4 × concentrations) to the HBSS-HEPES buffer to determine the baseline. […] Data presented is the pooled data of at least three independent experiments with three technical replicates. Changes in fluorescence units (ΔFU) were determined as the maximum fluorescent signal within the 190 s minus the average of the baseline.

[8] = target: T6, hBGT1 Q299L (Homo sapiens, UniProt P48065, Q299L); assay: [3H]GABA uptake at hBGT1 Q299L mutant in tsA201 cells; type: cell-based; details: data not shown
T6 construct: expressed in transfected cells; host or cells: tsA201 (transient)
Description: as §1, §2, §3

T6 sequence (P48065 whole entry Q299L): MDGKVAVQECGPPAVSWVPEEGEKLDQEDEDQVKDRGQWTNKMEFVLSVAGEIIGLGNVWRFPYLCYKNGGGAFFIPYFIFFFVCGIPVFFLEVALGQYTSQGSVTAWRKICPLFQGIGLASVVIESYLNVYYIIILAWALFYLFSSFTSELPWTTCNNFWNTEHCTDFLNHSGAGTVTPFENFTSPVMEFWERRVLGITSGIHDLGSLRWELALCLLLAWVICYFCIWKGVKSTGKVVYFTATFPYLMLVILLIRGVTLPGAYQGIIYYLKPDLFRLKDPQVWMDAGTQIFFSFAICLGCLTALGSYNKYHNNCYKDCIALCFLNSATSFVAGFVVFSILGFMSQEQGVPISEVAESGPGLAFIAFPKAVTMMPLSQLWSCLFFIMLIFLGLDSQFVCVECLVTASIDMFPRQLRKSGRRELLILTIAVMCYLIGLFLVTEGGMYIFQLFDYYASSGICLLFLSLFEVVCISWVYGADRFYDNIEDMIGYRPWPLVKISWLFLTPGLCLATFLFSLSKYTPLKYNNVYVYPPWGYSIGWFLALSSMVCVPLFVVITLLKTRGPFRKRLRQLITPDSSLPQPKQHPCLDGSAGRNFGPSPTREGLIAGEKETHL
T3 sequence (P35372 whole entry): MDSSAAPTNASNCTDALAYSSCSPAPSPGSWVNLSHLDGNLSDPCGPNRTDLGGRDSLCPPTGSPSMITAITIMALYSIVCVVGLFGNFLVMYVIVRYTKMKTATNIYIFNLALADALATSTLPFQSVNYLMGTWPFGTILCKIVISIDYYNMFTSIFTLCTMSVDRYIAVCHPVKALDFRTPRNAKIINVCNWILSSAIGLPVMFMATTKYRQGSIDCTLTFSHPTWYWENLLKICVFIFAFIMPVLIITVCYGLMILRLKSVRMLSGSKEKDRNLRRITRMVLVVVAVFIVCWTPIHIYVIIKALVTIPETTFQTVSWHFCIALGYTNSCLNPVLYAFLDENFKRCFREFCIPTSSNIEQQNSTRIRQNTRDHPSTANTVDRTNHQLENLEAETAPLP
T2 sequence (P21917 whole entry): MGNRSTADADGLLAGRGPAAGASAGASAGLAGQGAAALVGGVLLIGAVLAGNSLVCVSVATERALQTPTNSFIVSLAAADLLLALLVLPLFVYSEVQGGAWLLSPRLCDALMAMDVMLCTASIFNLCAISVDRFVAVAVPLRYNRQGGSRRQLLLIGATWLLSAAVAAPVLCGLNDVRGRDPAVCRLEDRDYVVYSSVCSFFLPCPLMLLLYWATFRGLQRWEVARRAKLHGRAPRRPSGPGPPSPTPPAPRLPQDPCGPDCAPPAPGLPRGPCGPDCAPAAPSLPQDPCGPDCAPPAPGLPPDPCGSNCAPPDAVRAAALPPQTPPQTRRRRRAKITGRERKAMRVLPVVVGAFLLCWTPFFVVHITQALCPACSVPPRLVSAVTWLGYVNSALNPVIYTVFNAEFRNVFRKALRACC
T4 sequence (P08912 whole entry): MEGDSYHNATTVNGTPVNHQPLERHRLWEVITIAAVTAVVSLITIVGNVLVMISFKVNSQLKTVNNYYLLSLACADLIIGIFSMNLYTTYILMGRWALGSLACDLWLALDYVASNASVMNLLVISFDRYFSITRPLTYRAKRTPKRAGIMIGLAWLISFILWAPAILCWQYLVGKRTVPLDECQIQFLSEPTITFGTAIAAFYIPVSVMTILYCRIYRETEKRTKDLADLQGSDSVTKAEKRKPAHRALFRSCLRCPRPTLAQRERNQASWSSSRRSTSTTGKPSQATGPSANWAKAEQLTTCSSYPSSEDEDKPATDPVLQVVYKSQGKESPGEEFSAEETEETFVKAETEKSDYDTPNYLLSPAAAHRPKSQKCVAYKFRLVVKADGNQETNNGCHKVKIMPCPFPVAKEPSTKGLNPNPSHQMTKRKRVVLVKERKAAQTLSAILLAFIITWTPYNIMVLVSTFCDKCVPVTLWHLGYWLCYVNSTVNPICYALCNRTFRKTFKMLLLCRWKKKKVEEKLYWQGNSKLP

Cc1ccsc1C(=CCCN(C)[C@H]1CCCC[C@H]1C(=O)O)c1sccc1C [SBV2-114, (1R,2S)-2-((4,4-bis(3-methylthiophen-2-yl)but-3-en-yl)(methyl)amino)cyclohexanecarboxylic acid]
pIC50 ([1]; ambiguous fit, N=1 experiment, read-out: IC50): < 3.00 | Frac ([1]; biphasic fit, N=1 experiment): 0.14 | IC50 ([1]; biphasic fit, N=1 experiment, read-out: pIC50, high affinity component (converted)): 0.417 µM | pIC50 ([1]; monophasic fit, N=1 experiment, read-out: IC50): < 3.00 | Fit ([1]; preferred model per experiment, F test): Biphasic; also recorded: Monophasic; also recorded: Ambiguous | pIC50 ([1]; read-out: IC50, low affinity component, biphasic fit, N=1 experiment): 3.12 | inhibition at 10 µM [2]: -5.1% | inhibition at 10 µM [3]: 42% | #Protected/#Tested ([4]; 50 mg/kg i.p.): 0/3 | #Protected/#Tested ([4]; 100 mg/kg i.p.): 0/4 | #Protected/#Tested ([4]; 125 mg/kg i.p.): 2/7 | #Protected/#Tested ([4]; 150 mg/kg i.p.): 4/6 | #Protected/#Tested ([4]; 200 mg/kg i.p.): 4/4 | ED50 ([4]; Mus musculus, ip): 139 mg/kg | inhibition at 10 µM [5]: 23.5% | preferred fit [6]: biphasic fit | intracellular Ca2+ increase [7]: triggered an intracellular Ca^2+ increase at 200 μM and 500 μM | inhibition profile and activity at hBGT1 Q299L [8]: clear biphasic inhibition profile and no significant altered activity
